Test results taken from ChEMBL document CHEMBL6127049, “Discovery of the selective and nanomolar inhibitor of DPP-4 more potent than sitagliptin by structure-guided rational design” (Eur J Med Chem, 2024).

Columns and labels:
Assay type in all cases: functional
Rattus norvegicus [1] = assay: Antihyperlipidemic effect in STZ-induced type 2 diabetes male Wistar albino rat model assessed as LDL level at 0.5 mg/kg, po measured after 4 weeks (reference value: 184.65 +/- 4.57 mg/dL)
Rattus norvegicus [2] = assay: Antihyperlipidemic effect in STZ-induced type 2 diabetes male Wistar albino rat model assessed as triglyceride level at 0.5 mg/kg, po measured after 4 weeks (reference value: 190.23 +/- 4.37 mg/dL)
Rattus norvegicus [3] = assay: Antihyperlipidemic effect in STZ-induced type 2 diabetes male Wistar albino rat model assessed as HDL level at 0.5 mg/kg, po measured after 4 weeks (reference value: 25.54 +/- 2.62 mg/dL)
Rattus norvegicus [4] = assay: Antihyperlipidemic effect in STZ-induced type 2 diabetes male Wistar albino rat model assessed as total cholesterol level at 0.5 mg/kg, po measured after 4 weeks (reference value: 227.04 +/- 4.10 mg/dL)

COc1ccc(Cl)cc1C(=O)NCCc1ccc(S(=O)(=O)NC(=O)NC2CCCCC2)cc1 [GLYBURIDE]
Activity (Rattus norvegicus [1]): 97.55 mg/dL
Activity (Rattus norvegicus [2]): 106.87 mg/dL
Activity (Rattus norvegicus [3]): 66.6 mg/dL
Activity (Rattus norvegicus [4]): 123.65 mg/dL
